Converted amounts (≈) assume the structure as drawn.
Experiments:
[1] = ABZ solubility in oils, surfactants and co-surfactants; format: physicochemical; conditions: 37 °C, 72 h
Method: The solubility tests were carried out on various oils, surfactants, and co-surfactants. The solubility determination method previously used by Meena et al. ([2012]) was employed. Excess ABZ was added to a volume of 1 g of the tested oil, surfactants, and co-surfactants, and placed in well-stoppered vials. The vials were agitated for 72 h (specified after determination of the equilibrium time beyond which the solubility is stable) at 37 ± 0.05 °C in a constant temperature water bath until equilibrium was attained. Subsequently, the vial's contents were centrifuged at 4000 rpm for 15 min using an ultracentrifuge to separate the insoluble ABZ. After being diluted with the solvent mixture (methanol and 1 N HCl with 7:3), the supernatants were filtered through a cellulose filter ([…]), and the ultraviolet absorbance of the filtrates was measured using the tested oil diluted with the solvent mixture as a blank to be 248 nm using a UV spectrophotometer. The materials used in the study included sunflower oil, Captex 300, PEG 300. PEG 400, soya oil, olive oil, crodamol oil, corn oil, Lauroglycol FCC, Cremophor EL, Solutol HS15, Labrafac lipophile WL1349, Capmul PG8, SPAN 20, Captex 355, Tween 80, Acrysol […], Labrasol, Cremophor RH40, Acrysol K140, Maisine, Sesame oil, Capmul MCM, Capryol PGMC, and propylene glycol. Results from each experiment were expressed as values in μg/mL.

[2] = ABZ saturated solubility in the selected SNEDDS pre-concentrate and in water; format: physicochemical
Method: Excess ABZ was added to keep the glass vials containing 1 g of selected optimized SNEDDS preconcentrate (composed of 5% oleic acid, 65% tween 20, 30% PEG) airtight. The suspension was incubated at 30 ± 0.5 °C in a water bath for 72 h to attain equilibrium (Kang et al., [2012]). The suspension was then centrifuged for 15 min at 4000 rpm, after three days using an ultracentrifuge to eliminate the undissolved ABZ. This was then followed by filtration of the supernatant with a 0.22 µm membrane filter. After the desired dilution with solvent (methanol and 1 N HCl with 7:3) was achieved, the ultraviolet absorbance of the filtrate was measured using a UV spectrophotometer at 248 nm. Blanks of plain SNEDDS not containing any drugs diluted in the same ratio were used to cancel interference from the SNEDDS preconcentrate. The experiment was repeated thrice, and the average drug saturated solubility in mg/mL of the selected SNEDDS was calculated.

SMILES: CCCSc1ccc2nc(NC(=O)OC)[nH]c2c1 [ABZ, Albendazolum]
- Total solubility ([1]; in Acrysol K140): 46.60 µg g^–1
- Total solubility ([1]; in Acrysol K150): 46.18 µg g^–1
- Total solubility ([1]; in Capmul MCM): 5.59 µg g^–1
- Total solubility ([1]; in Capmul PG8): 139.88 µg g^–1
- Total solubility ([1]; in Capryol PGMC): 179.48 µg g^–1
- Total solubility ([1]; in Captex 300): 40.23 µg g^–1
- Total solubility ([1]; in Captex 355): 99.37 µg g^–1
- Total solubility ([1]; in Cremophor EL): 179.76 µg g^–1
- Total solubility ([1]; in Cremophor RH40): 46.72 µg g^–1
- Total solubility ([1]; in Crodamol oil): 23.61 µg g^–1
- Total solubility ([1]; in Labrafac lipophile WL1349): 96.78 µg g^–1
- Total solubility ([1]; in Labrasol): 188.13 µg g^–1
- Total solubility ([1]; in Lauroglycol FCC): 186.05 µg g^–1
- Total solubility ([1]; in Maisine): 18.43 µg g^–1
- Total solubility ([1]; in Oleic acid): 734.20 µg g^–1
- Total solubility ([1]; in Olive oil): 0.79 µg g^–1
- Total solubility ([1]; in PEG 300): 340.45 µg g^–1
- Total solubility ([1]; in PEG 600): 498.90 µg g^–1
- Total solubility ([1]; in Propylene glycol): 194.47 µg g^–1
- Total solubility ([1]; in SPAN 20): 185.79 µg g^–1
- Total solubility ([1]; in Sesame oil): 3.73 µg g^–1
- Total solubility ([1]; in Solutol HS15): 193.44 µg g^–1
- Total solubility ([1]; in Soya oil): 3.62 µg g^–1
- Total solubility ([1]; in Sunflower oil): 0.43 µg g^–1
- Total solubility ([1]; in Tween 20): 210.45 µg g^–1
- Total solubility ([1]; in Tween 80): 172.19 µg g^–1
- average increase of solubility, SNEDDS pre-concentrate vs water ([2]; SNEDDS pre-concentrate relative to water): 89 fold
- solubility at 72 h ([2]; SNEDDS preconcentrate 5% oleic acid, 65% tween 20, 30% PEG, 30 °C, 72 h): 125 µg/mL (≈ 471 µM)
- solubility ([2]; water): 1.4 µg/mL (≈ 5.28 µM)

From paper PMC8510591, “A comprehensive study of the basic formulation of supersaturated self-nanoemulsifying drug delivery systems (SNEDDS) of albendazolum” (Drug Delivery, 2021)
